Tested on: PD-1-overexpressing Jurkat cells
Assay: Small molecule screen: IL2 secretion (AlphaLISA) from stimulated PD-1-overexpressing Jurkat cells
Type: cell-based, human
Settings: 3.3 μM compound; for Zscore_1 / Zscore_2: IL2 level, α-CD3/α-CD28/α-PD-1 beads; for Zscore_1: replicate 1; for Zscore_2: replicate 2; for Zscore_AVG: average of replicate Z scores
Experimental: PD-1-overexpressing Jurkat cells were plated at a concentration of 100,000 cells/well in a total volume of 80 μl. […] Dynabeads conjugated to α-CD3, α-CD28, and α-PD-1 antibodies were added in 20 for a final assay volume of 100 with a final compound concentration of 3.3 μM and an 8:1 bead:cell ratio. Beads were conjugated to α-CD3/α-CD28/control IgG and added to wells containing DMSO-treated cells as a positive control, while beads conjugated to α-CD3/α-CD28/α-PD1 were added to wells containing DMSO-treated cells as a negative control. Supernatants from each well were analyzed for IL2 levels by AlphaLISA (Perkin Elmers) according to the manufacturer's protocol. Average and standard deviation values were calculated from the PD-1 controls (DMSO-treated cells stimulated with α-CD3/α-CD28/α-PD-1 beads); hits were defined as compounds scoring at least 3 standard deviations from the mean of the controls.
In addition to known negative regulators of IL-2 production (e.g. glycogen synthase kinase-3α/β (GSK3α/β) (24,25)), this screen identified cyclin-dependent kinases 4 and 6 inhibitors (CDK4/6i) as top hits (Table 1).

Compound: O=C1c2ccccc2-c2n[nH]c3cccc1c23 [JNK Inhibitor II]
- Zscore_1: 0.4426
- Zscore_2: 0.5814
- Zscore_AVG: 0.512

Compound: COc1ccc(S(=O)(=O)N(CCO)c2ccccc2CN(C)C/C=C/c2ccc(Cl)cc2)cc1 [KN-93]
- Zscore_1: −0.2896
- Zscore_2: −2.889
- Zscore_AVG: −1.589

Compound: COc1cc2ncnc(Nc3ccc(Oc4ccccc4)cc3)c2cc1OC [Src Kinase Inhibitor I]
- Zscore_1: 4.691
- Zscore_2: 1.808
- Zscore_AVG: 3.249

Compound: Cl.Cl.O=S(=O)(c1cccc2cnccc12)N1CCCNCC1 [HA 1077, Dihydrochloride Fasudil]
- Zscore_1: −1.883
- Zscore_2: −3.234
- Zscore_AVG: −2.559

Compound: CC(C)(C)c1cc(C=C(C#N)C#N)cc(Br)c1O [AG 1024]
- Zscore_1: 0.3395
- Zscore_2: 0.506
- Zscore_AVG: 0.4228

Compound: CN[C@@H]1C[C@H]2O[C@@](C)([C@@H]1OC)n1c3ccccc3c3c4c(c5c6ccccc6n2c5c31)C(=O)N[C@@H]4O [UCN-01]
- Zscore_1: −7.46
- Zscore_2: −8.298
- Zscore_AVG: −7.879

Compound: Scytonemin, Lyngbya sp.
- Zscore_1: 0.1217
- Zscore_2: −0.3399
- Zscore_AVG: −0.1091

Compound: CCOC(=O)c1c(C)[nH]c(/C=C2\C(=O)Nc3ccccc32)c1C [VEGF Receptor 2 Kinase Inhibitor I]
- Zscore_1: −0.8038
- Zscore_2: −1.721
- Zscore_AVG: −1.262

Compound: PI 3-KbInhibitor II
- Zscore_2: 2.315
- Zscore_AVG: 1.096

Compound: O=C(Nc1cc(C(F)(F)F)cc(C(F)(F)F)c1)c1cc(Cl)ccc1O [IKK-2 Inhibitor V]
- Zscore_1: −5.485
- Zscore_2: −7.792
- Zscore_AVG: −6.638

Compound: O=[N+]([O-])/C=C/c1ccc2c(c1)OCO2 [Syk Inhibitor III]
- Zscore_1: −0.8894
- Zscore_2: 0.1912
- Zscore_AVG: −0.3491

Compound: PI 3-Kγ Inhibitor VII
- Zscore_1: −0.08397
- Zscore_2: −0.6851
- Zscore_AVG: −0.3845

Compound: Indirubin-3′-monoxime
- Zscore_1: 2.085
- Zscore_2: 1.884
- Zscore_AVG: 1.985

Compound: O=C1NC(=O)c2c1c1c3ccccc3[nH]c1c1[nH]c3ccccc3c21 [Arcyriaflavin A, Synthetic]
- Zscore_1: 3.889
- Zscore_2: 5.674
- Zscore_AVG: 4.782

Compound: CC[C@H](CO)Nc1nc(NCc2ccccc2O)c2ncn(C(C)C)c2n1 [Olomoucine II]
- Zscore_1: 0.3445
- Zscore_2: 2.103
- Zscore_AVG: 1.224

Compound: COc1cc2ncnc(Nc3cccc(Cl)c3)c2cc1OC [AG 1478]
- Zscore_1: −1.129
- Zscore_2: −1.216
- Zscore_AVG: −1.173

Compound: N#CC(C#N)=C(N)/C(C#N)=C/c1ccc(O)cc1 [AG 112]
- Zscore_1: −1.54
- Zscore_2: −3.816
- Zscore_AVG: −2.678

Compound: Cl.Cl.O=S(=O)(NCCNC/C=C/c1ccc(Br)cc1)c1cccc2cnccc12 [H-89, Dihydrochloride]
- Zscore_1: −3.268
- Zscore_2: −0.4334
- Zscore_AVG: −1.851

Compound: Oc1ccc(Nc2nc(-c3ccc(Cl)cc3)cs2)cc1 [Sphingosine Kinase Inhibitor]
- Zscore_1: −3.806
- Zscore_2: −4.154
- Zscore_AVG: −3.98

Compound: Cn1c2ccccc2c2c3c(c4c5ccccc5n(CCC#N)c4c21)CNC3=O [G? 6976]
- Zscore_1: −6.424
- Zscore_2: −4.191
- Zscore_AVG: −5.308

Compound: VEGFR Tyrosine Kinase Inhibitor IV
- Zscore_1: −0.8723
- Zscore_2: −2.305
- Zscore_AVG: −1.589

Compound: O=C(Nc1nc2ccccc2n1CCN1CCOCC1)c1cccc([N+](=O)[O-])c1 [IRAK-1/4 Inhibitor]
- Zscore_1: −0.5038
- Zscore_2: −1.963
- Zscore_AVG: −1.233

Compound: CC(C)(C)c1ccc(S(=O)(=O)Nc2ccc(-n3ccnc3)cc2)cc1 [Stem-Cell Factor/c-Kit Inhibitor, ISCK03]
- Zscore_1: −0.9751
- Zscore_2: −0.07435
- Zscore_AVG: −0.5247

Compound: O=c1c2ccccc2[nH]c(=S)n1CCN1CCC(=C(c2ccc(F)cc2)c2ccc(F)cc2)CC1 [Diacylglycerol Kinase Inhibitor II]
- Zscore_1: −0.9879
- Zscore_2: 0.3398
- Zscore_AVG: −0.324

Compound: Cc1nc(N)sc1-c1ccnc(Nc2cccc([N+](=O)[O-])c2)n1 [Cdk2/9 Inhibitor]
- Zscore_1: −10.43
- Zscore_2: −10.59
- Zscore_AVG: −10.51

Compound: Cc1cc(C)c(/C=C2\C(=O)Nc3ccccc32)[nH]1 [VEGF Receptor 2 Kinase Inhibitor III]
- Zscore_1: −0.2089
- Zscore_2: −2.04
- Zscore_AVG: −1.124

Compound: O=c1cc(N2CCOCC2)oc2c1ccc1ccccc12 [DNA-PK Inhibitor II]
- Zscore_1: 0.06496
- Zscore_2: 0.1041
- Zscore_AVG: 0.08452

Compound: CC(C)[C@H](CO)Nc1nc(Nc2cccc(Cl)c2)c2ncn(C(C)C)c2n1 [Purvalanol A]
- Zscore_1: −3.126
- Zscore_2: 0.37
- Zscore_AVG: −1.378

Compound: CC[C@H](CO)Nc1nc(NCc2ccccc2)c2ncn(C(C)C)c2n1 [Roscovitine]
- Zscore_1: −1.54
- Zscore_2: −2.209
- Zscore_AVG: −1.875

Compound: NC(=O)c1ccc2[nH]ccc2c1 [p38 MAP Kinase Inhibitor VII, SD-169]
- Zscore_1: 0.7558
- Zscore_2: 1.067
- Zscore_AVG: 0.9116

Compound: N#Cc1cc([N+](=O)[O-])c2sc(C(N)=O)[n+]([O-])c2c1 [Polo-like Kinase Inhibitor II, BTO-1]
- Zscore_1: −1.795
- Zscore_2: −0.518
- Zscore_AVG: −1.156

Compound: COc1cc2c(cc1OC)-c1[nH]nc(Nc3cccc(F)c3)c1C2 [PDGF Receptor Tyrosine Kinase Inhibitor IV]
- Zscore_1: −0.8894
- Zscore_2: −1.508
- Zscore_AVG: −1.199

Compound: PDK1/Akt/Flt Dual Pathway Inhibitor
- Zscore_1: −10.05
- Zscore_2: −10.59
- Zscore_AVG: −10.32

Compound: Akt Inhibitor XII, Isozyme- Selective, Akti-2
- Zscore_1: 5.536
- Zscore_2: 15.29
- Zscore_AVG: 10.41

Compound: COc1cc2ncc(-c3ccccc3)nc2cc1OC [AG 1296]
- Zscore_1: 0.5275
- Zscore_2: −0.8562
- Zscore_AVG: −0.1643

Compound: O=C1Cc2c([nH]c3ccc([N+](=O)[O-])cc23)-c2ccccc2N1 [Alsterpaullone]
- Zscore_1: −0.7783
- Zscore_2: −3.341
- Zscore_AVG: −2.06

Compound: CCOc1nc(NC(=O)Cc2cc(OC)ccc2OC)cc(N)c1C#N [JNK Inhibitor VIII]
- Zscore_1: −1.284
- Zscore_2: −2.969
- Zscore_AVG: −2.126

Compound: N#Cc1cnc2cnc(NCc3cccnc3)cc2c1Nc1ccc(F)c(Cl)c1 [Tpl2 Kinase Inhibitor]
- Zscore_1: −2.9
- Zscore_2: −5.972
- Zscore_AVG: −4.436

Compound: Cc1cc2ncc(-c3ccccc3)nc2cc1C [AG 1295]
- Zscore_1: −0.2372
- Zscore_2: −3.097
- Zscore_AVG: −1.667

Compound: O=C(Nc1cc(Cl)cc2c1[nH]c1cnccc12)c1cccnc1 [IKK Inhibitor X]
- Zscore_1: −4.959
- Zscore_2: −5.349
- Zscore_AVG: −5.154

Compound: Cc1cccc(-c2[nH]c(C(C)(C)C)nc2-c2ccc3c(c2)OCO3)n1 [TGF-b RI Inhibitor III]
- Zscore_1: −0.4096
- Zscore_2: −0.6585
- Zscore_AVG: −0.5341

Compound: C[C@@H](N)[C@H]1CC[C@H](C(=O)Nc2ccncc2)CC1 [ROCK Inhibitor, Y-27632]
- Zscore_1: −3.269
- Zscore_2: −4.375
- Zscore_AVG: −3.822

Compound: O=C(Nc1ccc(-c2cn[nH]c2)cc1)C1COc2ccccc2O1 (centres unmarked) [Rho Kinase Inhibitor V]
- Zscore_1: −0.6152
- Zscore_2: −2.172
- Zscore_AVG: −1.394

Compound: O=C1Nc2ccc(Br)cc2/C1=C/c1cc2c([nH]1)CCCC2 [VEGF Receptor 2 Kinase Inhibitor II]
- Zscore_1: 0.1217
- Zscore_2: −0.1806
- Zscore_AVG: −0.02944

Compound: Nc1cccc(-c2cc3c(Oc4cccc(O)c4)ncnc3[nH]2)c1 [GSK-3b Inhibitor XII, TWS119]
- Zscore_1: −1.059
- Zscore_2: −1.321
- Zscore_AVG: −1.19

Compound: O=C1Nc2ccccc2/C1=C\c1c(Cl)[nH]c2ccccc12 [Cdk1 Inhibitor]
- Zscore_1: −0.7783
- Zscore_2: −0.6137
- Zscore_AVG: −0.696

Compound: CCN(CC)CCCCN1c2ccccc2Oc2ccc(Cl)cc21 [Akt Inhibitor X]
- Zscore_1: 2.25
- Zscore_2: 6.382
- Zscore_AVG: 4.316

Compound: O=C1NC(=O)C(c2c[nH]c3ccccc23)=C1c1c[nH]c2ccccc12 [Bisindolylmaleimide IV]
- Zscore_1: −2.073
- Zscore_2: −2.336
- Zscore_AVG: −2.205

Compound: CCc1nc(-c2ccc(OC)cc2)[nH]c1-c1ccncc1 [SB 202474, Neg Con for p38 MAPK Inhibition Studies]
- Zscore_1: −2.475
- Zscore_2: −0.6025
- Zscore_AVG: −1.539

Compound: Cc1ccc([N+](=O)[O-])cc1S(=O)(=O)N(C)/N=C/c1cnc2ccc(Br)cn12.Cl [PI 3-Kα Inhibitor VIII]
- Zscore_1: −7.658
- Zscore_2: −10.33
- Zscore_AVG: −8.993

From patent publication US11865176B2, “Compositions and methods of modulating anti-tumor immunity” (Dana-Farber Cancer Institute, Inc., priority 2016, dated 2024)
